The source of these data is ChEMBL document CHEMBL1201862, “PubChem BioAssay data set” (2004).

SMILES strings stand for the structures.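 Where inhibition never reached the appropriate level, the endpoint shown equals the highest concentration tested. Otherwise, values were interpolated linearly from a five-concentration, 48-hour dose response in 96-well plates. At the GI50, growth is halved.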 Active and inactive are the calls of the source. Rule as the data show it: active = GI50 up to about 1.1 µM and inactive = higher. Where a SMILES comes first, the peptide text is derived from it. [ ]: non-standard residue; d: D form. Ac5c = NC1(C(=O)O)CCCC1

Some test systems named below: 786-0; A549; COLO 205; EKVX; HT-29; Hs-578T; IGROV-1; MCF7; MDA-N; Malme-3M; NCI-H226; NCI-H522; OVCAR-3; OVCAR-8; PC-3; SF-539; SNB-75; SR; TK-10; U-251.
Assay in all cases: inhibition of tumour cell growth, NCI panel, 48 h

`Cc1csc(NC23CC4CC(CC(C4)C2)C3)[n+]1C(P(=O)([O-])O)P(=O)(O)O` (stereo not given): the GI50 in the assay with 786-0, in the assay on A549, with COLO 205, with EKVX, in the assay on HT-29 and in the assay on Hs-578T was > 100 µM (inactive) in each case. In addition, the GI50 in the assay on IGROV-1, with MCF7, with MDA-N, in the assay on Malme-3M, with NCI-H226 and in the assay on NCI-H522 was > 100 µM (inactive) in each case. In addition, the GI50 in the assay on OVCAR-3, in the assay with OVCAR-8, with PC-3, in the assay with SF-539, in the assay on SNB-75 and in the assay on SR was > 100 µM (inactive) in each case. The GI50 in the assay on TK-10 and in the assay on U-251 was > 100 µM (inactive) throughout.
With `Cc1ccc(NC(c2ccccc2)c2ccc3cccnc3c2O)cc1` (stereo not given), the GI50 with 786-0 was 3.61 µM (inactive); in the assay with A549, 5.56 µM (inactive); in the assay on COLO 205, 4.68 µM (inactive); in the assay on EKVX, 3.47 µM (inactive); with HT-29 it was 2.9 µM (inactive); in the assay with Hs-578T, 9.02 µM (inactive). Also, the GI50 in the assay on IGROV-1 is 4.09 µM (inactive); in the assay on MCF7 it was 3.14 µM (inactive); in the assay on MDA-N it was 4.1 µM (inactive); with Malme-3M, 3.05 µM (inactive); with NCI-H226 it was 2.7 µM (inactive); in the assay with NCI-H522, 2.17 µM (inactive). In addition, the GI50 in the assay with OVCAR-3 is 2.59 µM (inactive); in the assay with OVCAR-8 it was 2.64 µM (inactive); in the assay on PC-3, 3.66 µM (inactive); in the assay with SF-539 it was 2.33 µM (inactive); with SNB-75, 6.37 µM (inactive); in the assay with SR, 2.44 µM (inactive). Besides, the GI50 in the assay on TK-10 is 5.22 µM (inactive); in the assay on U-251, 2.82 µM (inactive).
For `CCCC[C@H]1C(=O)O[C@H](C)[C@H](NC(=O)c2cccc(NC=O)c2O)C(=O)O[C@@H](C)[C@@H]1OC(=O)CC(C)C` [ANTIMYCIN A3], the GI50 was 9.08 µM (inactive) with 786-0; 0.0441 µM (active) in the assay on A549; 3.34 µM (inactive) with COLO 205; 0.321 µM (active) in the assay on EKVX; 1.6 µM (inactive) with HT-29; 13 µM (inactive) in the assay with Hs-578T. Besides, the GI50 in the assay on IGROV-1 is 3.94 µM (inactive); with MCF7, 0.0442 µM (active); in the assay with MDA-N it was 2.43 µM (inactive); in the assay with Malme-3M, 7.28 µM (inactive); with NCI-H226 it was 0.883 µM (active); in the assay with NCI-H522, 5.93 µM (inactive). For the same molecule, the GI50 is 2.38 µM (inactive) with OVCAR-3; 2.05 µM (inactive) in the assay on OVCAR-8; 0.278 µM (active) with PC-3; 12.8 µM (inactive) in the assay with SF-539; 21.4 µM (inactive) in the assay on SNB-75; < 0.0347 µM (active) with SR. The values for the GI50 with TK-10 and in the assay with U-251 were 6.79 µM (inactive) and 0.149 µM (active), respectively.
On to `NC1(C(=O)NC2(C(=O)O)CCCC2)CCCC1` (H-[Ac5c]-[Ac5c]-OH), for which the GI50 in the assay with 786-0, in the assay with A549, with COLO 205, with EKVX, with HT-29 and with Hs-578T was > 100 µM (inactive) each time. The GI50 with IGROV-1, with MCF7, with MDA-N, in the assay with Malme-3M, in the assay with NCI-H226 and with NCI-H522 was > 100 µM (inactive) throughout. The GI50 in the assay on OVCAR-3, with OVCAR-8, in the assay with PC-3, with SF-539, in the assay with SNB-75 and in the assay with SR was > 100 µM (inactive) each time. Besides, the GI50 in the assay on TK-10 and in the assay on U-251 was > 100 µM (inactive) in each case.
Regarding `CC(C)/C(Cl)=N/OC(=O)Nc1ccc(F)c(Cl)c1`, the GI50 in the assay on 786-0 was 1.6 µM (inactive); in the assay with A549, 18.1 µM (inactive); in the assay on COLO 205, 1.77 µM (inactive); with EKVX, 2.07 µM (inactive); in the assay on HT-29, 5.69 µM (inactive); in the assay with Hs-578T it was 21.6 µM (inactive). Also, the GI50 with IGROV-1 was 12.9 µM (inactive); with MCF7, 6.64 µM (inactive); with MDA-N, 3.92 µM (inactive); with Malme-3M, 1.96 µM (inactive); in the assay on NCI-H226, 16.6 µM (inactive); with NCI-H522, 1.65 µM (inactive). Also, the GI50 was 3.4 µM (inactive) in the assay on OVCAR-3; 17.4 µM (inactive) with OVCAR-8; 16.1 µM (inactive) in the assay on PC-3; 6.43 µM (inactive) in the assay with SF-539; 17.8 µM (inactive) in the assay on SNB-75; 1.56 µM (inactive) with SR. The GI50 in the assay with TK-10 was 17.9 µM (inactive); with U-251 it was 21.1 µM (inactive).
As to `CCCCCC(/C=N/N)C(O)(C(F)(F)F)C(F)(F)F` (stereo not given), the GI50 was 2.97 µM (inactive) with 786-0; 4.91 µM (inactive) with A549; 1.86 µM (inactive) in the assay on COLO 205; 2.58 µM (inactive) in the assay with EKVX; 3.59 µM (inactive) in the assay on HT-29; 3.27 µM (inactive) in the assay with Hs-578T. Further, the GI50 with IGROV-1 is 7.18 µM (inactive); in the assay on MCF7 it was 3.22 µM (inactive); in the assay with MDA-N, 3.55 µM (inactive); in the assay on Malme-3M, 1.36 µM (inactive); in the assay with NCI-H226, 2.54 µM (inactive); in the assay on NCI-H522, 5.51 µM (inactive). Moreover, the GI50 is 2.04 µM (inactive) in the assay on OVCAR-3; 3.48 µM (inactive) in the assay with OVCAR-8; 3.27 µM (inactive) with PC-3; 3.93 µM (inactive) in the assay with SF-539; 3.29 µM (inactive) with SNB-75; > 10 µM (inactive) in the assay with SR. Moreover, the GI50 in the assay on TK-10 was 7.89 µM (inactive); with U-251, 3.61 µM (inactive).
On to `O=C1c2ccccc2-c2ccc(NC(=O)C3CCCCC3C(=O)O)cc21` (stereo not given), for which the GI50 with 786-0 was > 100 µM (inactive); in the assay with A549, > 100 µM (inactive); in the assay with COLO 205, > 100 µM (inactive); in the assay with EKVX, > 100 µM (inactive); in the assay with HT-29, 87.3 µM (inactive); in the assay on Hs-578T it was > 100 µM (inactive). The GI50 with IGROV-1 is > 100 µM (inactive); with MCF7, 85.5 µM (inactive); in the assay with MDA-N it was > 100 µM (inactive); in the assay with Malme-3M it was > 100 µM (inactive); with NCI-H226, > 100 µM (inactive); in the assay with NCI-H522, > 100 µM (inactive). Also, the GI50 in the assay with OVCAR-3, in the assay on OVCAR-8, in the assay with PC-3, in the assay on SF-539, in the assay with SNB-75 and with SR was > 100 µM (inactive) each time. For the same molecule, the GI50 in the assay with TK-10 and with U-251 was > 100 µM (inactive) in each case.
Take `Cc1cc(NS(=O)(=O)c2ccc(NC(=O)c3ccc4nc5ccccc5c(Nc5ccc(S(=O)(=O)Nc6cc(C)on6)cc5)c4c3)cc2)no1`: the GI50 in the assay on 786-0, with A549, in the assay on COLO 205, in the assay on EKVX, in the assay with HT-29 and in the assay on Hs-578T was > 50 µM (inactive) throughout. For the same molecule, the GI50 in the assay with IGROV-1, in the assay with MCF7, in the assay on MDA-N, in the assay with Malme-3M, in the assay with NCI-H226 and with NCI-H522 was > 50 µM (inactive) throughout. Further, the GI50 with OVCAR-3, with OVCAR-8, with PC-3, with SF-539, in the assay with SNB-75 and with SR was > 50 µM (inactive) each time. For the same molecule, the GI50 with TK-10 and in the assay with U-251 was > 50 µM (inactive) in each case.
On to `O=C(NNC(=O)c1cc2ccccc2[nH]1)c1cc2ccccc2[nH]1`, for which the GI50 in the assay with 786-0, in the assay with A549, in the assay on COLO 205, in the assay on EKVX, in the assay on HT-29 and in the assay with Hs-578T was > 100 µM (inactive) in each case. Besides, the GI50 in the assay on IGROV-1, with MCF7, with MDA-N, in the assay with Malme-3M, with NCI-H226 and in the assay with NCI-H522 was > 100 µM (inactive) in each case. Moreover, the GI50 was > 100 µM (inactive) in the assay with OVCAR-3; > 100 µM (inactive) in the assay with OVCAR-8; > 100 µM (inactive) in the assay with PC-3; > 100 µM (inactive) with SF-539; > 100 µM (inactive) in the assay with SNB-75; 66.5 µM (inactive) with SR. In addition, the GI50 in the assay with TK-10 and with U-251 was > 100 µM (inactive) in each case.
Turning to `O=C(/C=C/c1cccc2ccccc12)c1ccccc1`, the GI50 was 8.83 µM (inactive) in the assay on 786-0; 15.2 µM (inactive) with A549; 20.7 µM (inactive) in the assay with COLO 205; 13.4 µM (inactive) in the assay with EKVX; 4.57 µM (inactive) in the assay with HT-29; 26.3 µM (inactive) in the assay on Hs-578T. The GI50 in the assay on IGROV-1 was 7.45 µM (inactive); with MCF7 it was 1.29 µM (inactive); in the assay on MDA-N it was 5.71 µM (inactive); in the assay with Malme-3M, 12.9 µM (inactive); with NCI-H226, 12.7 µM (inactive); in the assay on NCI-H522, 10.1 µM (inactive). Moreover, the GI50 in the assay on OVCAR-3 is 9.16 µM (inactive); in the assay with OVCAR-8, 8.45 µM (inactive); with PC-3 it was 7.05 µM (inactive); in the assay with SF-539, 3.57 µM (inactive); in the assay with SNB-75, 15.9 µM (inactive); in the assay on SR, 2.9 µM (inactive). The GI50 is 6.35 µM (inactive) in the assay with TK-10 and 8.63 µM (inactive) with U-251.
